Each block holds one molecule with its values, some of them ahead of it. Calls of active or inactive are those of the source.
Assays:
[1] = molecular target: Cytochrome P450 2D6 (Homo sapiens, UniProt P10635);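 also: CYP2D6 member of a cytochrome P450 panel assay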
[2] = molecular target: Cytochrome P450 2C9 (Homo sapiens, UniProt P11712)
[3] = molecular target: Heat shock protein HSP 90-alpha (Homo sapiens, UniProt P07900); format: functional, organism-based
[4] = molecular target: Cytochrome P450 2C19 (Homo sapiens, UniProt P33261); experiment: Cytochrome panel assay with activity outcomes. Panel member name: p450-cyp2c19 Compounds with AC50 equal or less than 10 uM are considered active; format: functional; settings: read-out: AC50
[5] = molecular target: FAD-linked sulfhydryl oxidase ALR (Homo sapiens, UniProt P55789); experiment: ALR-catalysed DTT oxidation blockers – biochemical, H2O2 detection, luminescence, cherry-pick, dose response (AID 493248)
[6] = molecular target: Genome polyprotein (dengue virus type 2, UniProt P29990); experiment: flavivirus cap methylation enzyme inhibition – biochemical, confirmation dose response, primary screen (AID 588689); format: functional
[7] = intracellular Trypanosoma cruzi inhibitors in host cells – cell-based, plate reader, cherry-pick samples, set 3, dose response (AID 651818); format: functional;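 also: compounds incubated with infected cells for about four days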

Sequence of Cytochrome P450 2D6 (P10635 whole entry): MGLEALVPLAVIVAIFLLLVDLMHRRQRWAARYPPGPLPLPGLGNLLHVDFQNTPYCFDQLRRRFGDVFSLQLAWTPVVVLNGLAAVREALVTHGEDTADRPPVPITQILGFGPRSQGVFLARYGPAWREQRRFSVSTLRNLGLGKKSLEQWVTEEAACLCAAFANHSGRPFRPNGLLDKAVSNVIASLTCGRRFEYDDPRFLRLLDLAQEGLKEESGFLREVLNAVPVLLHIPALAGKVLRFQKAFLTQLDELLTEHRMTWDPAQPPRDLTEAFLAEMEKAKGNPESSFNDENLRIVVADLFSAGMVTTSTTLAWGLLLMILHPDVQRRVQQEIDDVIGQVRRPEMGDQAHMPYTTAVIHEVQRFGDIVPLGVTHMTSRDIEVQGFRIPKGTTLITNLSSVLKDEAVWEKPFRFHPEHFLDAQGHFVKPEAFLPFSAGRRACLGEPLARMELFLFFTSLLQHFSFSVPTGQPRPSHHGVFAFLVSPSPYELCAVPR
Sequence of Cytochrome P450 2C9 (P11712 whole entry): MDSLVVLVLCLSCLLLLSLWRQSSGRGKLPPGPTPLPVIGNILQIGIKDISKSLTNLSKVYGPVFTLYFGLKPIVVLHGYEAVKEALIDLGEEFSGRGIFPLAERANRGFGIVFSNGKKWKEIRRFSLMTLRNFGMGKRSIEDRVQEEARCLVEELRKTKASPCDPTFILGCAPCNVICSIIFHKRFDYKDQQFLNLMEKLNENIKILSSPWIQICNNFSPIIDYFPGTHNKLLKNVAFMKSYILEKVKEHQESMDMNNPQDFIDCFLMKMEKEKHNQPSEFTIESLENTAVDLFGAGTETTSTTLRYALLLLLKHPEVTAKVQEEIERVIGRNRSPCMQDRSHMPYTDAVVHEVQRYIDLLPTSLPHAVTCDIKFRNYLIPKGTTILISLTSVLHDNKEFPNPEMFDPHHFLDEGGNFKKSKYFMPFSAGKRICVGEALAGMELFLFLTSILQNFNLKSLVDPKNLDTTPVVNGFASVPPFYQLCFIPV
Sequence of Cytochrome P450 2C19 (P33261 whole entry): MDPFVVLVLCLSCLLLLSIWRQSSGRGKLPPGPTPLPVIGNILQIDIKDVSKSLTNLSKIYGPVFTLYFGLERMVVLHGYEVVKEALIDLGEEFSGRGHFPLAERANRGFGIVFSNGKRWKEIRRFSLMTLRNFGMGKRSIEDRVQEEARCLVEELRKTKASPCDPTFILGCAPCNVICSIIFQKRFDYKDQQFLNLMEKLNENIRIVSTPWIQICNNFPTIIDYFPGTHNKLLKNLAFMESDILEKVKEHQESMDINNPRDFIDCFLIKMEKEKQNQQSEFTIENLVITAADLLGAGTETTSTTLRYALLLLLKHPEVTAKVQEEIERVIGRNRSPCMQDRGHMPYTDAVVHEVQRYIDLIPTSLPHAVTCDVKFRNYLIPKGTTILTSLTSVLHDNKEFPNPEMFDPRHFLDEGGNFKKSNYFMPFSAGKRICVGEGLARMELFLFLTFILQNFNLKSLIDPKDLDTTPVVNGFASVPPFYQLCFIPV
Sequence of FAD-linked sulfhydryl oxidase ALR (P55789 whole entry): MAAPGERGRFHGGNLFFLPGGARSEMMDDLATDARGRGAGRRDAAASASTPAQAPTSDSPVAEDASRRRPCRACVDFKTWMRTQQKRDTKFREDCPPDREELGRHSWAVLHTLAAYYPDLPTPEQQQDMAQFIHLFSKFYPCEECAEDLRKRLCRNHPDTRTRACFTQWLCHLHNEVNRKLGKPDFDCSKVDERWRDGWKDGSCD
Sequence of Genome polyprotein (P29990 2492-3391 limits assumed): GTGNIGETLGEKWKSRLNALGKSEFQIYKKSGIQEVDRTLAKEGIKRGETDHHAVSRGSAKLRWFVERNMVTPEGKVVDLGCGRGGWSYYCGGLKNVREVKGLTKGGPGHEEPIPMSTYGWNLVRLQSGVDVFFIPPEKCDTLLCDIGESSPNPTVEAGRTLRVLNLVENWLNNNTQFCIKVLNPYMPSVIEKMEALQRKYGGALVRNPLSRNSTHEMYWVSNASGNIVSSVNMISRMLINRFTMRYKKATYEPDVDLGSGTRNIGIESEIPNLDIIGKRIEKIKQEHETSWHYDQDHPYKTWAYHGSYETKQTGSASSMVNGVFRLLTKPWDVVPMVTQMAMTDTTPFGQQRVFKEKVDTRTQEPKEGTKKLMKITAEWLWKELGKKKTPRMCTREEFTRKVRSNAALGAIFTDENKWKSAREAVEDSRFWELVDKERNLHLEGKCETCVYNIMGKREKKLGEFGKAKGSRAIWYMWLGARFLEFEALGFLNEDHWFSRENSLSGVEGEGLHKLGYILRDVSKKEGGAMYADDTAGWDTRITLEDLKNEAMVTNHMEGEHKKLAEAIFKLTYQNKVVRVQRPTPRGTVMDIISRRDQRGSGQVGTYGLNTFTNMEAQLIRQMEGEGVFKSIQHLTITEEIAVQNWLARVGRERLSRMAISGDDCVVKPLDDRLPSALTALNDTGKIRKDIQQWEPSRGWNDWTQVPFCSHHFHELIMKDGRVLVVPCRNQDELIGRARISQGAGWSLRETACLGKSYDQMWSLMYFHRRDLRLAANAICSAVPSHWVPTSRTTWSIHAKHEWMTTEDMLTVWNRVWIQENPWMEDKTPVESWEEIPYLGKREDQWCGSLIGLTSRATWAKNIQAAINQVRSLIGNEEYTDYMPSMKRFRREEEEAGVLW

SMILES: CN1CCN(c2cc(N3CCCC3)c([N+](=O)[O-])cc2F)CC1
AC50 [1]: 14.1 µM (inconclusive)
AC50 [2]: 0.1 µM (inconclusive)

AC50 [3]: 8.23 µM (active)
SMILES: N=C(Cc1ccc(Cl)c(Cl)c1)NOC(=O)c1ccc(Br)o1

AC50 [1]: 39.8 µM (inconclusive)
AC50 [2]: 0.355 µM (inconclusive)
AC50 [4]: 39.8 µM (inconclusive)
SMILES: CN1CCN(NC(=O)c2cccc(F)c2)CC1

AC50 [5]: 0.798 µM (active)
IC50 [6]: 62.7 µM (active)
SMILES: Sc1nnc(-c2ccco2)n1/N=C/C(Cl)=C/c1ccccc1

SMILES: C[C@H]1CN([C@@H](C)CO)C(=O)Cc2cc(NC(=O)Nc3cccc4ccccc34)ccc2O[C@@H]1CN(C)Cc1ccc(Oc2ccccc2)cc1
AC50 [7]: 3.12 µM (active)

SMILES: Cc1noc(C)c1S(=O)(=O)N(C)C[C@H]1Oc2c(NC(=O)c3ccc(-c4nccs4)cc3)cccc2C(=O)N([C@@H](C)CO)C[C@H]1C
AC50 [7]: 5.82 µM (active)

SMILES: C[C@H](CO)N1C[C@H](C)[C@H](CN(C)Cc2ccc(C(=O)Nc3ccccc3N)cc2)Oc2ccc(NC(=O)Nc3ccc(C(F)(F)F)cc3)cc2CC1=O
AC50 [7]: 1.86 µM (active)

SMILES: C[C@H]1CN([C@@H](C)CO)C(=O)c2cccc(NC(=O)Nc3ccc(C(F)(F)F)cc3)c2O[C@H]1CN(C)Cc1ccc(C(F)(F)F)cc1
AC50 [7]: 3.22 µM (active)

SMILES: C[C@H]1CN([C@@H](C)CO)C(=O)c2cccc(NC(=O)c3ccc(-c4nccs4)cc3)c2O[C@@H]1CN(C)Cc1ccc(C(=O)Nc2ccccc2N)cc1
AC50 [7]: 2.92 µM (active)

SMILES: C[C@H]1CN([C@@H](C)CO)C(=O)Cc2cc(NS(=O)(=O)c3ccc(Cl)cc3)ccc2O[C@H]1CN(C)Cc1ccccc1
AC50 [7]: 4.6 µM (active)

AC50 [1]: 20 µM (inconclusive)
AC50 [2]: 0.501 µM (inconclusive)
SMILES: COc1cccc(-c2ccc3ncnc(NCc4ccc(OC)cc4OC)c3c2)c1
